In PubChem BioAssay AID2060602 (Molecular Pharmacology Branch, DTP, NCI, 2025):
Where “and” joins values, the source holds several entries; their conditions need not be identical. Identical values can stand only once. Each block holds one compound with its values, some of them ahead of it.

Tested on: 648629-189-R-J1-PDC complex spheroids viability
Test: Anticancer human tumor 648629-189-R-J1-PDC patient-derived bladder carcinoma cell line growth inhibition [CLK]
Conditions: for viability, T/C: stronger effect = lower value
From the text: A high-throughput screen of multi-cell type tumor spheroids was designed to identify active combinations of […] and targeted small molecules. Complex spheroids include a stromal component modeled by human endothelial cells (HUVEC) and fibroblasts modeled by human mesenchymal stem cells (MSCs). The concentration ranges selected for each drug and investigational agent were based upon clinically achievable concentrations if the clinical Cmax of the agent was known.
Compounds. The drugs and investigational agents: cirtuvivint (SM08502; NSC835563), CC-671 (NSC850746), vemurafenib (NSC761431), tapotoclax (NSC804041), sotorasib (NSC818433), adagrasib (NSC831453), MRTX-1133 (NSC836407), BAY2416964 (NSC825713), copanlisib (NSC816437), inavolisib (NSC800729), abemaciclib (NSC768073), osimertinib (NSC779217), entinostat (NSC756642), eltanexor (KPT-8602, NSC794443), venetoclax (NSC766270), ceralasertib (NSC777638), bortezomib (NSC756655), olaparib (NSC753686), talazoparib (NSC767125), alisertib (NSC759677), peposertib (NSC802822), gemcitabine (NSC613327), 5-fluorouracil (NSC19893), SN-38 (NSC673596), oxaliplatin (NSC266046), paclitaxel (NSC125973), and doxorubicin (NSC123127), were obtained from the National Cancer Institute (NCI) Developmental Therapeutics Program Chemical Repository. The FDA-approved anticancer drug set is available from the Developmental Therapeutics Program at https://dtp.cancer.gov/organization/dscb/obtaining/available plates.htm. […] The stock solutions were prepared in dimethyl sulfoxide (DMSO, Sigma-Aldrich, St. Louis, MO, cat. D2650), except for the platinum complexes which were prepared in saline (Quality Biological, Gaithersburg, MD, cat. 114-055-101), at 800-fold the tested concentration and stored at -70 degrees C prior to their use. All drugs and investigational agents were tested over a range starting from a high concentration at or near the clinical Cmax and decreasing in half-log increments. If the clinical Cmax for an agent had not been determined, the highest concentration tested was 10 microM.
Cell Culture. All cells were maintained in an incubator at 37 degrees C and 5% CO2 with 95% humidity. The PDC lines were cultured according to standard operating procedures established by the NCI PDMR. Briefly, all PDCs were thawed and cultured in Matrigel-coated flasks prepared with a working solution of 1X Ham's F-12 nutrient mix, without supplementation (Invitrogen, Waltham, MA, cat. 11765054), 100 U/mL penicillin-streptomycin (Invitrogen, cat. 15140122), and 2.5% Matrigel (Corning Inc., Corning, NY, cat. 354248) for the first three passages. The 947758-054-R-J2-PDC line was cultured in 6B/Colon 1A media, which includes advanced DMEM/F-12 (Thermo Fisher Scientific, cat. 12634028), 10 mM HEPES (Thermo Fisher Scientific, cat. 15630080), 1X GlutaMAX supplement (Thermo Fisher Scientific, cat. 35050061), 0.1 mg/mL primocin (InvivoGen, cat. ant-pm-2), 10% defined fetal bovine serum, heat inactivated (HyClone Laboratories Inc., cat. SH30070.03HI), 1.25 mM N-Acetyl-L-cysteine (Sigma-Aldrich, cat. A9165), 10 mM nicotinamide (Sigma-Aldrich, cat. N0636), 1X B-27 supplement (Thermo Fisher Scientific, cat. 17504044), 1X N-2 supplement (Thermo Fisher Scientific, cat. 17502048), and 10 microM Y-27632 dihydrochloride (Tocris Bioscience, cat. 1254). The 876862-298-R-J1-PDC was cultured in 6E media, which includes all 6B/Colon 1A media components plus 50% L-WRN conditioned media (ATCC, cat. CRL-3276), 50 ng/mL recombinant human EGF recombinant protein (hEGF; Thermo Fisher Scientific, cat. PHG0311), 10 ng/mL recombinant human fibroblast growth factor 10 (hGFG-10; PeproTech, cat. 100-26), 1 ng/mL recombinant human fibroblast growth factor 2 (hFGF-2; PeproTech, cat. 100-18B), and 1 µM prostaglandin E2 (PGE2; Tocris, cat. 2296). The 227483-062-R1-J1-PDC line was cultured in Panc media, containing all 6E components except hFGF-2, with the addition of 500 nM SB-431542 (Selleckchem, cat. S1067) and 10 nM gastrin (Tocris, cat. 3006). […]

[1] = curve of first compound, second compound 0.0316 µM
[2] = curve of first compound, second compound 0.1 µM
[3] = curve of first compound, second compound 0.316 µM
[4] = curve of first compound, second compound 1 µM
[5] = curve of first compound, second compound 3.16 µM
[6] = curve of first compound, second compound 10 µM
[7] = second compound 0.0316 µM, first compound 0.0316 µM
[8] = second compound 0.0316 µM, first compound 0.1 µM
[9] = second compound 0.0316 µM, first compound 0.316 µM
[10] = second compound 0.0316 µM, first compound 1 µM
[11] = second compound 0.1 µM, first compound 0.0316 µM
[12] = second compound 0.1 µM, first compound 0.1 µM
[13] = second compound 0.1 µM, first compound 0.316 µM
[14] = second compound 0.1 µM, first compound 1 µM
[15] = second compound 0.316 µM, first compound 0.0316 µM
[16] = second compound 0.316 µM, first compound 0.1 µM
[17] = second compound 0.316 µM, first compound 0.316 µM
[18] = second compound 0.316 µM, first compound 1 µM
[19] = second compound 1 µM, first compound 0.0316 µM
[20] = second compound 1 µM, first compound 0.1 µM
[21] = second compound 1 µM, first compound 0.316 µM
[22] = second compound 1 µM, first compound 1 µM
[23] = second compound 3.16 µM, first compound 0.0316 µM
[24] = second compound 3.16 µM, first compound 0.1 µM
[25] = second compound 3.16 µM, first compound 0.316 µM
[26] = second compound 3.16 µM, first compound 1 µM
[27] = second compound 10 µM, first compound 0.0316 µM
[28] = second compound 10 µM, first compound 0.1 µM
[29] = second compound 10 µM, first compound 0.316 µM
[30] = second compound 10 µM, first compound 1 µM
[31] = second compound 0.0316 µM, first compound 3.16 µM
[32] = second compound 0.0316 µM, first compound 10 µM
[33] = second compound 0.1 µM, first compound 3.16 µM
[34] = second compound 0.1 µM, first compound 10 µM
[35] = second compound 0.316 µM, first compound 3.16 µM
[36] = second compound 0.316 µM, first compound 10 µM
[37] = second compound 1 µM, first compound 3.16 µM
[38] = second compound 1 µM, first compound 10 µM
[39] = second compound 3.16 µM, first compound 3.16 µM
[40] = second compound 3.16 µM, first compound 10 µM
[41] = second compound 10 µM, first compound 3.16 µM
[42] = second compound 10 µM, first compound 10 µM
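Throughout, for viability, T/C: drug exposure lasted seven days before viability readout; 100% = DMSO vehicle control wells.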

IC50 [1]: > 1000 nM
IC50 [2]: > 1000 nM
IC50 [3]: < 3.16 nM
IC50 [4]: < 3.16 nM
IC50 [5]: < 3.16 nM
IC50 [6]: < 3.16 nM
SMILES: CCN1CCN(Cc2ccc(Nc3ncc(F)c(-c4cc(F)c5nc(C)n(C(C)C)c5c4)n3)nc2)CC1 + CNC(=O)c1ccc(Nc2nc(OC3CCCC3)c3c(-c4ccc5nc(C)oc5c4)c[nH]c3n2)c(OC)c1
viability, T/C (second compound 0.0316 µM, first compound 0.00316 µM): 98.4%
viability, T/C (second compound 0.0316 µM, first compound 0.01 µM): 103%
viability, T/C [7]: 107%
viability, T/C [8]: 100%
viability, T/C [9]: 113%
viability, T/C [10]: 136%
viability, T/C (second compound 0.1 µM, first compound 0.00316 µM): 81.3%
viability, T/C (second compound 0.1 µM, first compound 0.01 µM): 92.8%
viability, T/C [11]: 104%
viability, T/C [12]: 80.7%
viability, T/C [13]: 102%
viability, T/C [14]: 129%
viability, T/C (second compound 0.316 µM, first compound 0.00316 µM): 30.2%
viability, T/C (second compound 0.316 µM, first compound 0.01 µM): 28.1%
viability, T/C [15]: 24.2%
viability, T/C [16]: 28.4%
viability, T/C [17]: 36.4%
viability, T/C [18]: 39.6%
viability, T/C (second compound 1 µM, first compound 0.00316 µM): 17.2%
viability, T/C (second compound 1 µM, first compound 0.01 µM): 23%
viability, T/C [19]: 19.1%
viability, T/C [20]: 24.1%
viability, T/C [21]: 21.5%
viability, T/C [22]: 31.1%
viability, T/C (second compound 3.16 µM, first compound 0.00316 µM): 18.2%
viability, T/C (second compound 3.16 µM, first compound 0.01 µM): 18.6%
viability, T/C [23]: 20.9%
viability, T/C [24]: 17.8%
viability, T/C [25]: 23.9%
viability, T/C [26]: 25.1%
viability, T/C (second compound 10 µM, first compound 0.00316 µM): 16.2%
viability, T/C (second compound 10 µM, first compound 0.01 µM): 18.9%
viability, T/C [27]: 18.1%
viability, T/C [28]: 18.9%
viability, T/C [29]: 24.3%
viability, T/C [30]: 23.8%

SMILES: CC(Nc1ccc2c(c1)OCCn1cc(N3C(=O)OCC3C(F)F)nc1-2)C(N)=O (stereo not drawn) + CN1CCN(c2cc(C(=O)Nc3cc4cc(-c5cnn(C)c5)ccc4cn3)ccn2)CC1
IC50 [1]: 8560 nM
IC50 [2]: 8740 nM
IC50 [3]: < 31.6 nM
IC50 [4]: < 31.6 nM
IC50 [5]: < 31.6 nM
IC50 [6]: < 31.6 nM
viability, T/C [7]: 114%
viability, T/C [8]: 111%
viability, T/C [9]: 97.6%
viability, T/C [10]: 84.2%
viability, T/C [31]: 77.2%
viability, T/C [32]: 44.8%
viability, T/C [11]: 105%
viability, T/C [12]: 100%
viability, T/C [13]: 90.2%
viability, T/C [14]: 82.8%
viability, T/C [33]: 68.8%
viability, T/C [34]: 46.8%
viability, T/C [15]: 44.5%
viability, T/C [16]: 44.2%
viability, T/C [17]: 42.5%
viability, T/C [18]: 38.4%
viability, T/C [35]: 30.9%
viability, T/C [36]: 28.1%
viability, T/C [19]: 0.75%
viability, T/C [20]: 0.85%
viability, T/C [21]: 0.93%
viability, T/C [22]: 1.18%
viability, T/C [37]: 0.5%
viability, T/C [38]: 0.59%
viability, T/C [23]: 0.08%
viability, T/C [24]: 0.14%
viability, T/C [25]: 0.16%
viability, T/C [26]: 0.13%
viability, T/C [39]: 1.1%
viability, T/C [40]: 0.14%
viability, T/C [27]: 0.1%
viability, T/C [28]: 0.13%
viability, T/C [29]: 0.17%
viability, T/C [30]: 0.22%
viability, T/C [41]: 0.22%
viability, T/C [42]: 0.2%

IC50 (curve of compound): > 100 nM
SMILES: Cn1ncnc1[C@H]1c2n[nH]c(=O)c3cc(F)cc(c23)N[C@@H]1c1ccc(F)cc1
viability, T/C (compound 0.000316 µM): 106% and 98.8%
viability, T/C (compound 0.001 µM): 84.9% and 101%
viability, T/C (compound 0.00316 µM): 99.2% and 97.4%
viability, T/C (compound 0.01 µM): 83.2% and 92.6%
viability, T/C (compound 0.0316 µM): 73.8% and 77.2%
viability, T/C (compound 0.1 µM): 67.4% and 71.5%

IC50 [1]: > 10000 nM
IC50 [2]: > 10000 nM
IC50 [3]: < 31.6 nM
IC50 [4]: < 31.6 nM
IC50 [5]: < 31.6 nM
IC50 [6]: < 31.6 nM
SMILES: C=CC(=O)N1CCN(c2nc(=O)n(-c3c(C)ccnc3C(C)C)c3nc(-c4c(O)cccc4F)c(F)cc23)C(C)C1 (stereo not drawn) + CNC(=O)c1ccc(Nc2nc(OC3CCCC3)c3c(-c4ccc5nc(C)oc5c4)c[nH]c3n2)c(OC)c1
viability, T/C [7]: 120%
viability, T/C [8]: 110%
viability, T/C [9]: 115%
viability, T/C [10]: 108%
viability, T/C [31]: 115%
viability, T/C [32]: 110%
viability, T/C [11]: 91.9%
viability, T/C [12]: 94.6%
viability, T/C [13]: 90.1%
viability, T/C [14]: 87.9%
viability, T/C [33]: 93.5%
viability, T/C [34]: 82.5%
viability, T/C [15]: 27%
viability, T/C [16]: 24.8%
viability, T/C [17]: 29.8%
viability, T/C [18]: 39.2%
viability, T/C [35]: 42.6%
viability, T/C [36]: 66.2%
viability, T/C [19]: 23.5%
viability, T/C [20]: 26.6%
viability, T/C [21]: 23.5%
viability, T/C [22]: 24.2%
viability, T/C [37]: 26.9%
viability, T/C [38]: 46.2%
viability, T/C [23]: 17.9%
viability, T/C [24]: 22.7%
viability, T/C [25]: 20.4%
viability, T/C [26]: 22.6%
viability, T/C [39]: 27.7%
viability, T/C [40]: 31.8%
viability, T/C [27]: 19.7%
viability, T/C [28]: 20.5%
viability, T/C [29]: 20.3%
viability, T/C [30]: 27.3%
viability, T/C [41]: 33.2%
viability, T/C [42]: 28.5%
